According to ChEMBL document CHEMBL1135698, “Synthesis, antitumor activity, molecular modeling, and DNA binding properties of a new series of imidazonaphthalimides” (J Med Chem, 2002):

Experiments:
Type in all cases: functional, cell-based
HT-29 = experiment: In vitro concentration required to reduce cell number to 50% in human colon carcinoma (HT-29) culture
HeLa = experiment: In vitro concentration required to reduce cell number to 50% in human cervical carcinoma (HeLa) culture
PC-3 = experiment: In vitro concentration required to reduce cell number to 50% in human postrate carcinoma (PC-3) culture

Row | SMILES | IC50 (HT-29) | IC50 (HeLa) | IC50 (PC-3)
1 | Cc1nc2cc3c4c(cccc4c2[nH]1)C(=O)N(CCN(C)CCN1C(=O)c2cccc4c2c(cc2nc(C)[nH]c24)C1=O)C3=O | 17.5 µM | 4.45 µM | > 100 µM
2 | Cc1nc2c(cc3c4c(cccc42)C(=O)N(CCN2CCCC2)C3=O)[nH]1 | 3.11 µM | 6.09 µM | 4.22 µM
3 | Cc1nc2cc3c4c(cccc4c2[nH]1)C(=O)N(CCN(C)CCCN(C)CCN1C(=O)c2cccc4c2c(cc2nc(C)[nH]c24)C1=O)C3=O | 0.32 µM | 0.8 µM | 3.22 µM
4 | O=C1c2cccc3cccc(c23)C(=O)N1CCNCCCNCCN1C(=O)c2cccc3cccc(c23)C1=O [ELINAFIDE] | 0.017 µM | 0.07 µM | 0.32 µM
5 | CN(C)CCN1C(=O)c2cccc3cc(N)cc(c23)C1=O [AMONAFIDE] | 4.67 µM | 2.73 µM | 6.38 µM
6 | Cc1nc2cc3c4c(cccc4c2[nH]1)C(=O)N(CCN(C)C)C3=O | 0.94 µM | 2.35 µM | 10.4 µM
7 | Cc1nc2cc3c4c(cccc4c2[nH]1)C(=O)N(CCN(C)CCN(C)CCN1C(=O)c2cccc4c2c(cc2nc(C)[nH]c24)C1=O)C3=O | 3.83 µM | 8.62 µM | > 100 µM
8 | Cc1nc2c(cc3c4c(cccc42)C(=O)N(CCNCCCNCCN2C(=O)c4cccc5c4c(cc4nc(C)[nH]c45)C2=O)C3=O)[nH]1 | 8.5 µM | 8.26 µM | > 100 µM
9 | Cc1nc2c(cc3c4c(cccc42)C(=O)N(CCNCCNCCN2C(=O)c4cccc5c4c(cc4nc(C)[nH]c45)C2=O)C3=O)[nH]1 | 1.08 µM | 3.49 µM | > 100 µM
10 | Cc1nc2c(cc3c4c(cccc42)C(=O)N(CCCNCCNCCCN2C(=O)c4cccc5c4c(cc4nc(C)[nH]c45)C2=O)C3=O)[nH]1 | 15 µM | 8.75 µM | 744 µM
11 | Cc1nc2cc3c4c(cccc4c2[nH]1)C(=O)N(CCCN(C)CCCN1C(=O)c2cccc4c2c(cc2nc(C)[nH]c24)C1=O)C3=O | > 100 µM | > 100 µM | 36.3 µM
